This note sets out measurements from patent publication US20210244735A1, “COMPOSITIONS AND METHODS FOR TREATING MYELOFIBROSIS” (Impact Biomedicines, Inc., priority 2010, published 2021).

The target of this data set is human CYP3A4 (Homo sapiens, UniProt P08684). In words: In vitro evaluations of CYP3A4 metabolism and inhibition. Format: in vitro ADME.
Sequence of human CYP3A4 (P08684 whole entry): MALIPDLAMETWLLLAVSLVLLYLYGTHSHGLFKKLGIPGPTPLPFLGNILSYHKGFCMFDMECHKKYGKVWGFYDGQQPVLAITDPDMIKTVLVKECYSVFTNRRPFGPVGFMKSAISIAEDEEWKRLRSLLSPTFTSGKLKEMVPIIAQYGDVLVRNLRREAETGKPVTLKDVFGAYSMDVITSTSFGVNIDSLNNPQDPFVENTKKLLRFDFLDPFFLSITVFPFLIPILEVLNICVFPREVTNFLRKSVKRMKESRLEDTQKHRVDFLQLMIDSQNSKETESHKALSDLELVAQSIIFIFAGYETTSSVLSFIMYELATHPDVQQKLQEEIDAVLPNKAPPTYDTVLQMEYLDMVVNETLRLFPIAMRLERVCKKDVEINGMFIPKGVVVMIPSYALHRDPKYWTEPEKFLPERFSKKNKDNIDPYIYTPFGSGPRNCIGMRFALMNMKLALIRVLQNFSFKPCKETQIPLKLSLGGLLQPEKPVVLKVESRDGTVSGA

As for `Cc1cnc(Nc2ccc(OCCN3CCCC3)cc2)nc1Nc1cccc(S(=O)(=O)NC(C)(C)C)c1` [N-tert-butyl-3-[(5-methyl-2-{[4-(2-pyrrolidin-1-ylethoxy)phenyl]amino}pyrimidin-4-yl)amino]benzenesulfonamide], the CYP3A4 inhibition entry (in vitro data) was “inhibits CYP3A4 in a time-dependent fashion”. Also, the metabolism result (in vitro evaluations) is “metabolized by human CYP3A4”.
